# Laboratory results taken from US20220241261A1, “COMBINATIONS OF INHIBITORS OF IRAK4 WITH INHIBITORS OF BTK” (Bayer Pharma Aktiengesellschaft, priority 2015, published 2022).
# Assays:
# [1] = test system: secretion of TNF-α in THP-1 cells; assay: TNF-α secretion in THP-1 cells (LPS-triggered, HTRF); assay type: cell-based; settings: Homo sapiens, LPS stimulation, 17 h, read-out: IC50 with respect to the secretion of TNF-α in THP-1 cells
# Description: With the aid of this test, it is possible to test substances for their ability to inhibit secretion of TNF-α (tumour necrosis factor alpha) in THP-1 cells (human monocytic acute leukaemia cell line). […] In this test, TNF-α secretion is triggered by incubation with bacterial lipopolysaccharide (LPS).
# The cells were incubated at room temperature for 15 min. 2-2.5 of 0.1 μg/ml LPS (Sigma, Escherichia coli 055:B5, Cat. No. L5418) dissolved in cell culture medium (final concentration 0.05 ag/ml) were then dispensed into each well. As a neutral control, cells were treated with 0.05 ag/ml LPS and 1% DMSO and, as inhibitor control, only once with 1% DMSO.
# The amount of TNF-α was determined using the TNF-alpha HTRF Detection Kit (Cisbio, Cat No. 62TNFPEB/C). To this end, in each case 2 μl of the detection solution consisting of anti-TNF-α-XL665 conjugate and anti-TNF-α-cryptate conjugate, dissolved in accordance with the manufacturer's instructions in the reconstitution buffer, were added for the HTRF (Homogeneous Time-Resolved Fluorescence) test. After the addition, the mixture was incubated either at room temperature for 3 h or at 4° C. overnight.
# The activity of the substances is expressed as the ratio between neutral and inhibitor control in percent. The IC50 values were calculated using a 4-parameter fit.
# [2] = test system: ABC-DLBCL cell lines TMD-8 and HBL-1 and OCI-LY10; assay: Cell proliferation measurement (Cell Titer Glo, combination, isobolograms); assay type: cell-based, human; settings: combination with ibrutinib or RN486 or AVL-292 or CGI-1746; TMD-8, HBL-1, OCI-LY10 cells; 72 h
# Description: The antiproliferative activity of the compounds of the general formula (I) as constituents of the inventive combinations was examined in vitro in human ABC-DLBCL cells. […] After 24 h, cells on one plate (0 h plate) were treated with 30 μl/cavity of CTG solution (Promega Cell Titer Glo (catalogue #G755B and G756B)) and incubated at room temperature for 10 min, and luminescence was measured by means of a VICTOR V (Perkin Elmer), in order to determine cell viability on commencement of treatment. The cells on the test plate were treated with the compounds of the general formula (I) as constituents of the inventive combinations and incubated at 37° C. for 72 h. […] As control, the cells were treated with vehicle (DMSO). After 72 h, the cells were treated with 30 μl/cavity of CTG solution (Promega Cell Titer Glo (catalogue #G755B and G756B)) and incubated at room temperature for 10 min, and luminescence was measured by means of a VICTOR V (Perkin Elmer), in order to determine cell viability at the end of treatment. […] The IC50 values were calculated using a 4-parameter fit. The combinatorial effect to test substances was determined on the basis of the above-described IC50 determination. […] This index allows a quantitative determination of substance interactions. A CI<1, =1, and >1 respectively describe synergistic, additive and antagonistic effects. […]
# [3] = test system: human TMD-8 ABC-DLBCL tumours; settings: TMD-8 xenograft, C.B-17 SCID mice, ibrutinib 10 mg/kg
# Description: The anti-tumour activity of the compounds of the general formula (I) as constituents of the inventive combinations was examined in murine xenotransplantation models. For this purpose, female C.B-17 SCID mice were implanted subcutaneously with tumour cell lines of human B-cell lymphoma, e.g. TMD-8. At a mean tumour size of 20-30 mm^2, monotherapeutic treatment or treatment in combination with the standard ibrutinib treatment commenced, each of which were administered orally. This was preceded by randomization of the animals. […] The tumour size and the body weight were determined weekly for three weeks. Changes in the body weight were a measure of treatment-related toxicity (>10%=critical, stoppage in treatment until recovery, >20%=toxic, termination). The tumour area was detected by means of an electronic caliper gauge [length (mm)×width (mm)]. The anti-tumour efficacy defined the ratio of the tumour area of treatment versus control [tumour area of the treatment group on day X/tumour area of the control group on day X]. […] Statistical analysis was effected using single-factor ANOVA and comparison with the control group by means of pair-by-pair comparative analysis (Dunnett's test).
# TMD-8 tumour cells were implanted subcutaneously on day 0 into female C.B-17 SCID mice. The treatment was started on day 15 at a tumour area of about 26 mm^2. […]
# relapsed DLBCL = settings: phase 2 study; cited from earlier work
Structure (SMILES),IC50 [1] [nM],antitumour (anti-proliferative) action of the combination compared to single treatments [2],"Max. weight loss ([3]; QD p.o., Example 11 40 mg/kg, change versus initial body weight) [%]","effect on the tumour growth of TMD-8 (in words) ([3]; oral daily, Example Compound 11 40 mg/kg)",patients responded to treatment (relapsed DLBCL) [%]
"CC(C)(O)CCn1cc2cc(NC(=O)c3cccc(C(F)F)n3)c(C(C)(C)O)cc2n1 [Example 13, 6-(Difluoromethyl)-N-[2-(3-hydroxy-3-methylbutyl)-6-(2-hydroxypropan-2-yl)-2H-indazol-5-yl]pyridine-2-carboxamide]",100,distinct rise in antitumour action was almost always recorded,–,–,–
"Cc1nc(C(=O)Nc2cc3cn(CCC(C)(C)O)nc3cc2C(C)(C)O)ccc1F [Example 19, 5-Fluoro-N-[2-(3-hydroxy-3-methylbutyl)-6-(2-hydroxypropan-2-yl)-2H-indazol-5-yl]-6-methylpyridine-2-carboxamide]",100,distinct rise in antitumour action was almost always recorded,–,–,–
"C=CC(=O)N1CCC[C@@H](n2nc(-c3ccc(Oc4ccccc4)cc3)c3c(N)ncnc32)C1 [Ibrutinib, 1-{(3R)-3-[4-amino-3-(4-phenoxyphenyl)-1H-pyrazolo[3,4-d]pyrimidin-1-yl]piperidin-1-yl}prop-2-en-1-one]",–,–,−5,moderate inhibitory effect,40
